What is called MIC is the least concentration at which growth counts as inhibited.

What all share (format): cell-based
One data set deals with pig erythrocytes. The conditions noted are these: red cells of porcine. On the procedure: Since PRAMPs are able to kill bacteria through membrane lysis, it is imperative to evaluate whether these synthesized SPRLPs also lyse eukaryotic membranes. The ability to lyse porcine red blood cells was assessed and the minimum concentration to result in 5% erythrocyte hemolysis (MHC) was reported (Tables 2 & 3). […] This greatly limits their therapeutic potential. […] However, all other SPRLPs were non-hemolytic (MHC>512 μg/mL).
The ability of SPRLPs to lyse eukaryotic red blood cells were quantified by the amount of hemoglobin released upon incubation with pig erythrocytes, following published protocols (37, 39). Fresh pig blood drawn from pig antecubital vein was centrifuged at 1000×g for 5 minutes at 4° C., washed with PBS three times and re-suspended in the same buffer, consecutively. Then, agents of interest were 2-fold serially diluted in PBS on 96-well plate and mixed with equal volumes of erythrocyte solution. Post 1-hour incubation at 37° C., intact cells were pelleted by centrifugation at 1000×g for 5 minutes at 4° C. The supernatant was then transferred to a new 96-well plate. The hemoglobin released was measured via EMax Plus microplate reader (Molecular Devices, USA) at 570 nm wavelength. Erythrocytes in PBS with or without 0.1% Triton X-100 was used as negative or positive control, respectively.

Data set [1] concerns P. aeruginosa CAN-ICU 62308 (gentamicin-resistant). On the procedure: (§1) The synthesized SPRLPs were evaluated for their antibacterial potency against a panel of Gram-positive and Gram-negative bacteria (Tables 2 & 3). Some of the included pathogens were collected from patients visiting or admitted to participating Canadian hospitals through the CAN-ICU (27) and CANWARD (28) national surveillance studies. Antibacterial activity was assessed using minimum inhibitory concentration (MIC) against various clinical pathogens.
(§2) Isolates used in this study were either obtained from the American Type Culture Collection (ATCC), the Canadian National Intensive Care Unit (CAN-ICU) surveillance study (27) or the Canadian Ward Surveillance (CANWARD) study (28). Clinical isolates belonging to the CAN-ICU and CANWARD studies were recovered from patients suffering a presumed infectious disease entering or admitted in a participating medical center across Canada during the time of study. MDR P. aeruginosa strains in this study refer to those that are resistant to aminoglycosides, fluoroquinolones, cephalosporins, and carbapenems while XDR strains are those that are resistant to aminoglycosides, fluoroquinolones, cephalosporins, carbapenems, aztreonam and penicillin+β-lactamase inhibitor combination (39, 40).
(§3) Microbroth dilution susceptibility test following the Clinical and Laboratory Standards Institute (CLSI) guidelines (32) was performed to assess the in vitro antibacterial activity of SPRLPs. Overnight grown bacterial cultures were diluted in saline to achieve a 0.5 McFarland turbidity, followed by 1:50 dilution in Mueller-Hinton broth (MHB) for inoculation to a final concentration of 5×10^5 colony forming units/mL. The assay was done on a 96-well plate to which the agents of interest were 2-fold serially diluted in MHB and incubated with equal volumes of inoculum at 37° C. for 18 hours. MIC was determined as the lowest concentration to inhibit visible bacterial growth in form of turbidity, which was confirmed using EMax Plus microplate reader (Molecular Devices, USA) at a wavelength of 590 nm. The well containing MHB broth with or without bacterial cells was used as positive or negative control, respectively.

The test system of data set [2] is methicillin-resistant S. aureus ATCC 33592. How it is done: as §1, §2, §3
Another data set deals with E. coli ATCC 25922. How it is done: as §1, §2, §3
The subject of data set [3] is E. coli CAN-ICU 61714 (gentamicin-resistant). On the procedure: as §1, §2, §3
For data set [4], the system named is P. aeruginosa CANWARD-2011 96846 (gentamicin-, tobramycin-resistant). How it is done:
as §1, §2, §3

Data set [5] concerns A. baumannii CAN-ICU 63169. How it is done:
as §1, §2, §3

Data set [6] relates to P. aeruginosa wild-type PAO1. On the procedure:
as §1, §2, §3

The test system of data set [7] is E. coli CAN-ICU 63074 (amikacin-intermediate resistant). How it is done: as §1, §2, §3
A further data set has as its system S. aureus ATCC 29213. How it is done: as §1, §2, §3
The test system of data set [8] is S. maltophilia CAN-ICU 62584. How it is done: as §1, §2, §3
For a further data set, the system named is K. pneumoniae ATCC 13883. How it is done: as §1, §2, §3
The test system of the next data set is E. faecalis ATCC 29212. On the procedure: as §1, §2, §3
Data set [9] relates to E. coli CANWARD-2011 97615 (gentamicin-, tobramycin-, ciprofloxacin-resistant) aac(3′)iia. How it is done: as §1, §2, §3
In another data set the test system is E. faecium ATCC 27270. How it is done:
as §1, §2, §3

The test system of the next data set is P. aeruginosa ATCC 27853. On the procedure:
as §1, §2, §3

Data set [10] deals with methicillin-resistant S. epidermidis CAN-ICU 61589 (ceftazidime-resistant). The conditions noted are these: methicillin-resistant CAN-ICU 61589 (ceftazidime-resistant). On the procedure:
as §1, §2, §3

The test system of data set [11] is methicillin-susceptible Staphylococcus epidermidis CANWARD-2008 81388. Particulars: methicillin-susceptible CANWARD-2008 81388. On the procedure:
as §1, §2, §3

Peptide text beside a SMILES is read from it. * marks the point of attachment. Acetyl(1-adamantyl) = O=C(CC12CC3CC(CC(C3)C1)C2)*; Octanoyl = CCCCCCCC(=O)*

As for `N=C(N)NCCC[C@H](NC(=O)[C@@H]1CCCN1C(=O)CNC(=O)[C@@H]1CCCN1C(=O)[C@H](CCCNC(=N)N)NC(=O)[C@@H]1CCCN1C(=O)CC12CC3CC(CC(C3)C1)C2)C(=O)N1CCC[C@H]1C(N)=O` [Ad-PGP, Adamantyl-CH2CO-PRPGPRP-NH2] ({Acetyl(1-adamantyl)}-PRPGPRP-NH2), the “MHC (minimum concentration that resulted in 5% red blood cell hemolysis)” value with pig erythrocytes is over 512 µg/mL. Also, the MIC (in [1]; in data set [2]; with E. coli ATCC 25922; in [3]; in data set [4]; in [5]) was over 128 µg/mL each time. Besides, the MIC in data set [6] is over 512 µg/mL; in data set [7] it was over 128 µg/mL; in the data set on S. aureus ATCC 29213, over 128 µg/mL; in [8] it was over 128 µg/mL; with K. pneumoniae ATCC 13883, over 128 µg/mL; in the data set on E. faecalis ATCC 29212, over 128 µg/mL. The MIC (in [9]; in the data set with E. faecium ATCC 27270; in the data set on P. aeruginosa ATCC 27853; in data set [10]; in [11]) was over 128 µg/mL in each case.
In the case of `CC(C)C[C@H](NC(=O)[C@@H]1CCCN1C(=O)[C@H](CCCNC(=N)N)NC(=O)[C@@H]1CCCN1C(=O)CC12CC3CC(CC(C3)C1)C2)C(=O)N1CCC[C@H]1C(=O)N[C@@H](CCCNC(=N)N)C(=O)N1CCC[C@H]1C(N)=O` [Ad-PLP, Adamantyl-CH2CO-PRPLPRP-NH2] ({Acetyl(1-adamantyl)}-PRPLPRP-NH2), in the data set on pig erythrocytes, the “MHC (minimum concentration that resulted in 5% red blood cell hemolysis)” value is over 512 µg/mL. The MIC (in [1]; in [2]; with E. coli ATCC 25922; in [3]; in data set [4]; in data set [5]) was over 128 µg/mL in each case. The MIC in data set [6] was over 512 µg/mL; in [7] it was over 128 µg/mL; with S. aureus ATCC 29213, over 128 µg/mL; in [8], over 128 µg/mL; with K. pneumoniae ATCC 13883, over 128 µg/mL; in the data set with E. faecalis ATCC 29212, over 128 µg/mL. In addition, the MIC (in data set [9]; in the data set on E. faecium ATCC 27270; with P. aeruginosa ATCC 27853; in [10]; in data set [11]) was over 128 µg/mL in each case.
`N=C(N)NCCC[C@H](NC(=O)[C@@H]1CCCN1C(=O)[C@H](Cc1c[nH]c2ccccc12)NC(=O)[C@@H]1CCCN1C(=O)[C@H](CCCNC(=N)N)NC(=O)[C@@H]1CCCN1C(=O)CC12CC3CC(CC(C3)C1)C2)C(=O)N1CCC[C@H]1C(N)=O` [Ad-PWP, Adamantyl-CH2CO-PRPWPRP-NH2] ({Acetyl(1-adamantyl)}-PRPWPRP-NH2): the “MHC (minimum concentration that resulted in 5% red blood cell hemolysis)” value with pig erythrocytes is over 512 µg/mL. Also, the MIC (in [1]; in data set [2]; in the data set on E. coli ATCC 25922; in data set [3]; in data set [4]; in data set [5]) was over 128 µg/mL throughout. The minimal inhibitory concentration (MIC) in data set [6] is over 512 µg/mL; in data set [7], over 128 µg/mL; in the data set on S. aureus ATCC 29213 it was over 128 µg/mL; in data set [8], over 128 µg/mL; in the data set on K. pneumoniae ATCC 13883, over 128 µg/mL; in the data set with E. faecalis ATCC 29212, over 128 µg/mL. The MIC (in data set [9]; in the data set with E. faecium ATCC 27270; with P. aeruginosa ATCC 27853; in data set [10]; in [11]) was over 128 µg/mL in each case.
Turning to `CCCCCCCC(=O)N1CCC[C@H]1C(=O)N[C@@H](CCCNC(=N)N)C(=O)N1CCC[C@H]1C(=O)NCC(=O)N1CCC[C@H]1C(=O)N[C@@H](CCCNC(=N)N)C(=O)N1CCC[C@H]1C(N)=O` [Compound C8-PGP, CH3(CH2)6CO-PRPGPRP-NH2] (Octanoyl-PRPGPRP-NH2), the “MHC (minimum concentration that resulted in 5% red blood cell hemolysis)” value in the data set on pig erythrocytes is over 512 µg/mL. Also, the MIC (in data set [1]; in data set [2]; with E. coli ATCC 25922; in [3]; in [4]; in data set [5]) was over 128 µg/mL in each case. Besides, the MIC in data set [6] was over 512 µg/mL; in [7] it was over 128 µg/mL; in the data set on S. aureus ATCC 29213, over 128 µg/mL; in data set [8], over 128 µg/mL; in the data set on K. pneumoniae ATCC 13883, over 128 µg/mL; in the data set on E. faecalis ATCC 29212, over 128 µg/mL. Moreover, the MIC (in data set [9]; with E. faecium ATCC 27270; in the data set on P. aeruginosa ATCC 27853; in [10]; in data set [11]) was over 128 µg/mL each time.
For the molecule `CCCCCCCC(=O)N1CCC[C@H]1C(=O)N[C@@H](CCCNC(=N)N)C(=O)N1CCC[C@H]1C(=O)N[C@@H](CC(C)C)C(=O)N1CCC[C@H]1C(=O)N[C@@H](CCCNC(=N)N)C(=O)N1CCC[C@H]1C(N)=O` [Compound C8-PLP, CH3(CH2)6CO-PRPLPRP-NH2] (Octanoyl-PRPLPRP-NH2), in the data set with pig erythrocytes, the “MHC (minimum concentration that resulted in 5% red blood cell hemolysis)” value is over 512 µg/mL. The MIC (in [1]; in [2]; in the data set with E. coli ATCC 25922; in [3]; in data set [4]; in data set [5]) was over 128 µg/mL each time. Further, the MIC in [6] is over 512 µg/mL; in [7] it was over 128 µg/mL; in the data set on S. aureus ATCC 29213, over 128 µg/mL; in data set [8], over 128 µg/mL; in the data set on K. pneumoniae ATCC 13883, over 128 µg/mL; in the data set on E. faecalis ATCC 29212 it was over 128 µg/mL. Also, the minimum inhibitory concentration (MIC) (in data set [9]; with E. faecium ATCC 27270; with P. aeruginosa ATCC 27853; in data set [10]; in data set [11]) was over 128 µg/mL throughout.
